Laboratory results: US4822606A, “Immunosuppressive synthetic peptides and analogs thereof based on retroviral envelope sequences” (Duke University, priority 1986, dated 1989)
Ends that are not written are not given here.

Columns and labels:
[1] = system: lymphocytes from two non-related individuals; assay: Human two-way mixed leukocyte culture (MLC); assay type: cell-based; details: 4 experiments, 6-day culture, coupled to BSA
Method: Fifty μl of RPMI containing 1×10^5 lymphocytes from each of two non-related individuals was added to each well of a 96 well tissue culture plate. An additional 50 μl of RPMI was added and cultures were incubated at 37° C. in humidified 5% CO2 for 5 days. Fifty μl of RPMI containing either peptide or no addition was added for an additional 24 hr. During the final 4 hr of incubation each well was incubated with 25 μl of RPMI containing 0.5 μCi of ^3 H-thymidine and incorporated radionucleotide determined as above.

murine CTLL-2 cells = assay: Murine cytotoxic T lymphocyte (CTLL-2) IL-2 dependent proliferation assay; assay type: cell-based; details: for average inhibition of CTLL-2 proliferation: coupled to BSA, CS-1 5 experiments, CS-3 4 experiments;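 for all read-outs here: CTLL-2 cells, 4 x 10^3 per well in 96-well plates with RPMI plus 6% FBS, proliferation read as cell-bound radioactivity counted by liquid scintillation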
Method: Fifty μ1 of RPMI (6% FBS, 0% IL-2) containing 4 x 10^3 CTLL-2 cells was added to each well of a 96 well tissue culture plate (Falcon, Oxnard, CA). To each well was then added 50 μl of RPMI 1640 containing 3% human IL-2 50 μl of either RPMI or RPMI containing synthetic peptides. Cultures were then incubated for 24 hours at 37° C. in humidified 5% CO^2 Fifty μl of RPMI containing 1 μCi of ^3 H-thymidine (6.7 Ci/mmole; New England Nuclear, Boston, MA) was added to each well for the final 4 hours of cultures. Cells were collected by filtration onto glass fiber filters and incorporated radioactivity determined by liquid scintillation spectrophotometry.

human lymphocytes = assay: Binding of [^125 I]-CKS-17-BSA to cultured human lymphocytes; details: >1000 fold excess of unlabeled BSA conjugate
Method: Human mononuclear cells were stimulated for 3 days with PHA, washed free of lectin, cultured for 10 days with 10% of a human IL-2 preparation (electronucleonics) washed and resuspended to 5×10^6 cells/ml in phosphate-buffered-saline, pH 7.2 (PBS) containing 0.1% BSA. […] Binding was terminated and unbounded [^125 I]-CKS-17-BSA removed by rapid (30 sec.) centrifugation of the cells through oil. The cell associated radioactivity was measured using a gamma radiation counter.

[2] = system: OKT3-stimulated human lymphocytes; assay: Human lymphocyte proliferative response to OKT3 antibody; assay type: cell-based; details: 5 experiments, 3 days, coupled to BSA
Method: One hundred μl of RPMI containing 2×10^5 lymphocytes was added to each well of a 96 well tissue culture plate. Fifty μl of RPMI containing either peptide or no addition was added for 2 hr at 37° C followed by the addition of 50 μl of RPMI containing nothing or Con A (40 μg/ml) or OKT3 antibody (1:1000 dilution). The cultures were incubated for 72 hr at 37° C. in 5% humidified CO2, pulsed with ^3 Hthymidine (0.,5 μCi/well, 4h.) and the incorporated radioactivity determined as described above. The concentration of OKT3 antibody used was previously determined to give 75-100% of a maximal response.

human monocytes = assay: Monocyte superoxide anion (O2^-) release; assay type: cell-based; details: WGA stimulated, peptide coupled to BSA, mean ± SE
Method: Monocytes were aliquoted into 12×75 mm polypropylene tubes (Falcon, Oxnard, CA) and incubated at 37° C. with test materials for twenty minutes. Cytochalasin E was then added to give a final concentration of 5 μg/ml. Ten minutes later 1.5 mg/ml cytochrome C was added followed immediately by wheat germ agglutinin (WGA) to a final concentration of 30 μg/ml (1). Supernatants were removed after 5 min. for determination of O2^- dismutase-inhibitable reduction of cytochrome C (2).

Row | Substance | average inhibition of human two-way MLC ([1]; 3.75 μM) [%] | average inhibition of human two-way MLC ([1]; 7.5 μM) [%] | average inhibition of human two-way MLC ([1]; 15 μM) [%] | average inhibition of CTLL-2 proliferation (murine CTLL-2 cells; ca. 3.75 μM) [%] | average inhibition of CTLL-2 proliferation (murine CTLL-2 cells; ca. 7.5 μM) [%] | average inhibition of CTLL-2 proliferation (murine CTLL-2 cells; ca. 15 μM) [%] | inhibition of [^125 I]-CKS-17-BSA binding by excess unlabelled material (human lymphocytes) | average inhibition of OKT3-stimulated lymphocyte proliferation ([2]; ca. 3.75 μM) [%] | average inhibition of OKT3-stimulated lymphocyte proliferation ([2]; ca. 7.5 μM) [%] | average inhibition of OKT3-stimulated lymphocyte proliferation ([2]; ca. 15 μM) [%] | O2^- Release (human monocytes; dilution 1:20) | O2^- Release (human monocytes; dilution 1:40) | effect upon CTLL-2 cell proliferation (murine CTLL-2 cells; peptides coupled to BSA or control BSA, same conditions as the active peptide)
1 | AQNRRGLDLLFWEQGGL [CS-1] | 51.8 | 72.2 | 81.8 | 13.4 | 39.8 | 92.8 | binding could be inhibited | 26.8 | 42.8 | 57.6 | – | – | –
2 | Glu-Val-Val-Leu-Glnpartial Asn-Arg-Arg-Gly-Leu-Asp-Leu-Leu (chain 1 EVVLQ; chain 2 NRRGLDLL; printed: Glu-Val-Val-Leu-Gln; printed: Asn-Arg-Arg-Gly-Leu-Asp-Leu-Leu) [SP-9] | – | – | – | – | – | – | – | – | – | – | 10.6 ± 0.3 nmoles/5 minues/1.2 × 10^6 mon | 12.4 ± 0.5 nmoles/5 minues/1.2 × 10^6 mon | little or no effect
3 | LQARILAVERYLKDQQL [CS-3] | 44.5 | 74.0 | 88.5 | 3.5 | 23.2 | 81.8 | binding could be inhibited | 23.2 | 33.4 | 40.4 | – | – | –
